Among the data in ChEMBL document CHEMBL4118060, “A unique mid-sequence linker used to multimerize the lipid-phosphatidylserine (PS) binding peptide-peptoid hybrid PPS1” (Eur J Med Chem, 2017) are Activity values, retold here.

Molecules are shown by their SMILES. Activity calls are given as the source filed them. The calls are words filed in the database; no cut-off is given here. Bridge positions count the residues as written; N and C are the ends. Square brackets hold non-standard residues; d marks the D form. Side chains are listed from the residue outwards. Peptide text beside a SMILES is read from it. I, II: the chains in the order shown. ξ: configuration not given here. Gly(N-piperonyl) = O=C(O)CNCc1ccc2c(c1)OCO2; N(4-MeOBn)Gly = COc1ccc(CNCC(=O)O)cc1; Nrpe = C[C@@H](NCC(=O)O)c1ccccc1; NAllylGly = C=CCNCC(=O)O; AEEA = NCCOCCOCC(=O)O; Nlys = NCCCCNCC(=O)O; ξK = NCCCCC(N)C(=O)O; ξM = CSCCC(N)C(=O)O; Nme = COCCNCC(=O)O; βAla = NCCC(=O)O

For the first test, the system named is HCC4017. As to the kind of experiment: Cytotoxicity against human HCC4017 cells assessed as decrease in cell viability at 0.001 to 50 uM after 24 hrs by MTS assay. It counts as functional, cell-based. For orientation: Tetrazolium assays rely on reduction of a dye to a coloured formazan, in cell work by metabolically active cells.
As to `C=CCNCC(=O)N(CCOC)CC(=O)N(CC=C)CC(=O)N(CCOC)CC(=O)N(CC=C)CC(=O)NCC(=O)NC(CCCCN)C(=O)NC(CCSC)C(=O)NCCCCC(NC(=O)C(CCSC)NC(=O)C(CCCCN)NC(=O)CNC(=O)CN(CC=C)C(=O)CN(CCOC)C(=O)CN(CC=C)C(=O)CN(CCOC)C(=O)CNCC=C)C(N)=O` (centres undefined) (I: H-[NAllylGly][Nme][NAllylGly][Nme][NAllylGly]GKMK-NH2 / II: H-[NAllylGly][Nme][NAllylGly][Nme][NAllylGly]GKM; amide I:9-II:C; configuration not given here), the result was inactive.

On to `COc1ccc(CN(CC(=O)NC(CCCCNC(=O)C(CCCCN)NC(=O)C(CCCCN)NC(=O)CN)C(=O)NCCOCCOCC(=O)NCCC(=O)NCCCCC(NC(=O)CN(Cc2ccc(OC)cc2)C(=O)CN(C(=O)CN(Cc2ccc3c(c2)OCO3)C(=O)CN[C@H](C)c2ccccc2)[C@H](C)c2ccccc2)C(=O)NC(CCCCN)C(=O)NC(CCCCN)C(=O)NC(CCSC)C(N)=O)C(=O)CN(C(=O)CN(Cc2ccc3c(c2)OCO3)C(=O)CN[C@H](C)c2ccccc2)[C@H](C)c2ccccc2)cc1` (some centres undefined) (I: H-[Nrpe][Gly(N-piperonyl)][Nrpe][N(4-MeOBn)Gly][ξK][ξK][ξK][ξM]-NH2 / II: H-[Nrpe][Gly(N-piperonyl)][Nrpe][N(4-MeOBn)Gly][ξK]([ξK-ξK-Gly])[AEEA][βAla]; amide I:5-II:C), for which the outcome was Active. The same measure, in the same setting: next, `COc1ccc(CN(CC(=O)NC(CCCCNC(=O)C(CCCCN)NC(=O)C(CCCCN)NC(=O)CN)C(=O)NCCC(=O)NCCCCC(NC(=O)CN(Cc2ccc(OC)cc2)C(=O)CN(C(=O)CN(Cc2ccc3c(c2)OCO3)C(=O)CN[C@H](C)c2ccccc2)[C@H](C)c2ccccc2)C(=O)NC(CCCCN)C(=O)NC(CCCCN)C(=O)NC(CCSC)C(N)=O)C(=O)CN(C(=O)CN(Cc2ccc3c(c2)OCO3)C(=O)CN[C@H](C)c2ccccc2)[C@H](C)c2ccccc2)cc1` (some centres undefined) (I: H-[Nrpe][Gly(N-piperonyl)][Nrpe][N(4-MeOBn)Gly][ξK][ξK][ξK][ξM]-NH2 / II: H-[Nrpe][Gly(N-piperonyl)][Nrpe][N(4-MeOBn)Gly][ξK]([ξK-ξK-Gly])[βAla]; amide I:5-II:C): “Active”; `COc1ccc(CN(CC(=O)NC(CCCCNC(=O)C(CCCCNC(=O)C(CCCCN)NC(=O)C(CCCCN)NC(=O)C(CCSC)NC(=O)CN)NC(=O)CN(Cc2ccc(OC)cc2)C(=O)CN(C(=O)CN(Cc2ccc3c(c2)OCO3)C(=O)CN[C@H](C)c2ccccc2)[C@H](C)c2ccccc2)C(=O)NCCCCC(NC(=O)CN(Cc2ccc(OC)cc2)C(=O)CN(C(=O)CN(Cc2ccc3c(c2)OCO3)C(=O)CN[C@H](C)c2ccccc2)[C@H](C)c2ccccc2)C(=O)NC(CCCCN)C(=O)NC(CCCCN)C(=O)NC(CCSC)C(N)=O)C(=O)CN(C(=O)CN(Cc2ccc3c(c2)OCO3)C(=O)CN[C@H](C)c2ccccc2)[C@H](C)c2ccccc2)cc1` (some centres undefined) (I: H-[Nrpe][Gly(N-piperonyl)][Nrpe][N(4-MeOBn)Gly][ξK][ξK][ξK][ξM]-NH2 / II: H-[Nrpe][Gly(N-piperonyl)][Nrpe][N(4-MeOBn)Gly][ξK]([ξK-ξK-ξM-Gly]) / III: H-[Nrpe][Gly(N-piperonyl)][Nrpe][N(4-MeOBn)Gly][ξK]; amide I:5-III:C, II:C-III:5): “Active”; `COc1ccc(CN(CC(=O)NC(CCCCNC(=O)C(CCCCN)NC(=O)C(CCCCN)NC(=O)CN)C(=O)NC(CCCCN)C(=O)NC(CCCCN)C(N)=O)C(=O)CN(C(=O)CN(Cc2ccc3c(c2)OCO3)C(=O)CN[C@H](C)c2ccccc2)[C@H](C)c2ccccc2)cc1` (some centres undefined) (H-[Nrpe][Gly(N-piperonyl)][Nrpe][N(4-MeOBn)Gly][ξK]([ξK-ξK-Gly])[ξK][ξK]-NH2): “inactive”. Still for that read-out and setting: next, `COc1ccc(CN(CC(=O)N(CCCCN)CC(=O)NC(CCCCN)C(=O)NC(CCCCN)C(=O)NC(CCSC)C(N)=O)C(=O)CN(C(=O)CN(Cc2ccc3c(c2)OCO3)C(=O)CN[C@H](C)c2ccccc2)[C@H](C)c2ccccc2)cc1` (some centres undefined) (H-[Nrpe][Gly(N-piperonyl)][Nrpe][N(4-MeOBn)Gly][Nlys][ξK][ξK][ξM]-NH2): “inactive”. For the molecule `COc1ccc(CN(CC(=O)NC(CCCCNC(=O)C(CCCCN)NC(=O)C(CCCCN)NC(=O)CN)C(=O)NCCCCC(NC(=O)CN(Cc2ccc(OC)cc2)C(=O)CN(C(=O)CN(Cc2ccc3c(c2)OCO3)C(=O)CN[C@H](C)c2ccccc2)[C@H](C)c2ccccc2)C(=O)NC(CCCCN)C(=O)NC(CCCCN)C(=O)NC(CCSC)C(N)=O)C(=O)CN(C(=O)CN(Cc2ccc3c(c2)OCO3)C(=O)CN[C@H](C)c2ccccc2)[C@H](C)c2ccccc2)cc1` (some centres undefined) (I: H-[Nrpe][Gly(N-piperonyl)][Nrpe][N(4-MeOBn)Gly][ξK][ξK][ξK][ξM]-NH2 / II: H-[Nrpe][Gly(N-piperonyl)][Nrpe][N(4-MeOBn)Gly][ξK]([ξK-ξK-Gly]); amide I:5-II:C), the outcome was Active. On the same count and under the same terms, next, `COc1ccc(CN(CC(=O)N(CCCCN)CC(=O)NC(CCCCN)C(=O)NC(CCCCN)C(=O)NC(CCSC)C(=O)NCCCCC(NC(=O)C(CCSC)NC(=O)C(CCCCN)NC(=O)C(CCCCN)NC(=O)CN(CCCCN)C(=O)CN(Cc2ccc(OC)cc2)C(=O)CN(C(=O)CN(Cc2ccc3c(c2)OCO3)C(=O)CN[C@H](C)c2ccccc2)[C@H](C)c2ccccc2)C(N)=O)C(=O)CN(C(=O)CN(Cc2ccc3c(c2)OCO3)C(=O)CN[C@H](C)c2ccccc2)[C@H](C)c2ccccc2)cc1` (some centres undefined) (I: H-[Nrpe][Gly(N-piperonyl)][Nrpe][N(4-MeOBn)Gly][Nlys][ξK][ξK][ξM][ξK]-NH2 / II: H-[Nrpe][Gly(N-piperonyl)][Nrpe][N(4-MeOBn)Gly][Nlys][ξK][ξK][ξM]; amide I:9-II:C): “Active”.

The test system of another test is HCC4017. As to the kind of experiment: Cytotoxicity against human HCC4017 cells assessed as decrease in cell viability at 0.001 to 50 uM after 24 hrs by calcein AM dye-based fluorescence assay. It counts as functional.
For `COc1ccc(CN(CC(=O)NC(CCCCNC(=O)C(CCCCNC(=O)C(CCCCN)NC(=O)C(CCCCN)NC(=O)C(CCSC)NC(=O)CN)NC(=O)CN(Cc2ccc(OC)cc2)C(=O)CN(C(=O)CN(Cc2ccc3c(c2)OCO3)C(=O)CN[C@H](C)c2ccccc2)[C@H](C)c2ccccc2)C(=O)NCCCCC(NC(=O)CN(Cc2ccc(OC)cc2)C(=O)CN(C(=O)CN(Cc2ccc3c(c2)OCO3)C(=O)CN[C@H](C)c2ccccc2)[C@H](C)c2ccccc2)C(=O)NC(CCCCN)C(=O)NC(CCCCN)C(=O)NC(CCSC)C(N)=O)C(=O)CN(C(=O)CN(Cc2ccc3c(c2)OCO3)C(=O)CN[C@H](C)c2ccccc2)[C@H](C)c2ccccc2)cc1` (some centres undefined) (I: H-[Nrpe][Gly(N-piperonyl)][Nrpe][N(4-MeOBn)Gly][ξK][ξK][ξK][ξM]-NH2 / II: H-[Nrpe][Gly(N-piperonyl)][Nrpe][N(4-MeOBn)Gly][ξK]([ξK-ξK-ξM-Gly]) / III: H-[Nrpe][Gly(N-piperonyl)][Nrpe][N(4-MeOBn)Gly][ξK]; amide I:5-III:C, II:C-III:5), the result was Active.
